Here are results for 48 compounds from patent US10071095B2, “1,2,4-triazolo [4,3-A] pyridine derivatives and their use for the treatment of neurological and psychiatric disorders” (JANSSEN PHARMACEUTICALS, INC., priority 2009, dated 2018).

The structures appear in SMILES notation.

In one assay the target is T1, human mGluR2 receptor (Homo sapiens, UniProt Q14416).
T1 construct: expressed in transfected cells; host or cells: CHO cells
T1 sequence (Q14416 19-872): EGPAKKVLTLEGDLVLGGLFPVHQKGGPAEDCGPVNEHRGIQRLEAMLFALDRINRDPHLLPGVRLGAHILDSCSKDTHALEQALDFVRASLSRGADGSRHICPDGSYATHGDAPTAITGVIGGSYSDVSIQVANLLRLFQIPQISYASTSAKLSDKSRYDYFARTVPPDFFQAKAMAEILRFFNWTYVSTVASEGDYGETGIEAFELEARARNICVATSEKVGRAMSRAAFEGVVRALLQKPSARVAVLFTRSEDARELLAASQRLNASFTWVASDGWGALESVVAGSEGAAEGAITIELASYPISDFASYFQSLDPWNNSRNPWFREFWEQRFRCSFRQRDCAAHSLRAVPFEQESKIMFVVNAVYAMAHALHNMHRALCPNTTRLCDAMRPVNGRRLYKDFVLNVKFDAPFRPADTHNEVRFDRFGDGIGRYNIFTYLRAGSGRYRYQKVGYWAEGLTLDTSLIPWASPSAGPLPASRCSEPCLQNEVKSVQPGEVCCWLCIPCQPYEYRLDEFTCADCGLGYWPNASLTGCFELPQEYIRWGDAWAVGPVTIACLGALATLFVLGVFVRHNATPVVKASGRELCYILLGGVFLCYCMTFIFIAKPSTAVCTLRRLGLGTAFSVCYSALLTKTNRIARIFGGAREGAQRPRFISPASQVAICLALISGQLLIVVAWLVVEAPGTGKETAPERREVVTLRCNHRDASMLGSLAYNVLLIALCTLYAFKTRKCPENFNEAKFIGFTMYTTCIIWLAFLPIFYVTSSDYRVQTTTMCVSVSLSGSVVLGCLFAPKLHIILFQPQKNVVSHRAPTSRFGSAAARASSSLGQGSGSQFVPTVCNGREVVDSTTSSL
Description: [35S]GTPγS binding assay, positive allosteric modulation (GTPγS-PAM) in presence of EC20 glutamate. The assay is classed as biochemical. Conditions: in presence of glutamate at EC20; average pEC50 if more experiments; ‡ means tested once. How it is done:
[^35S]GTPγS Binding Assay
The [^35S]GTPγS binding assay is a functional membrane-based assay used to study G-protein coupled receptor (GPCR) function whereby incorporation of a non-hydrolysable form of GTP, [^35S]GTPγS (guanosine 5′-triphosphate, labelled with […] ^35S), is measured. The G-protein α subunit catalyzes the exchange of guanosine 5′-diphosphate (GDP) by guanosine triphosphate (GTP) and on activation of the GPCR by an agonist, [^35S]GTPγS, becomes incorporated and cannot be cleaved to continue the exchange cycle (Harper (1998) Current Protocols in Pharmacology 2.6.1-10, John Wiley & Sons, Inc.). […] Here we describe the use of the [^35S]GTPγS binding assay using membranes from cells transfected with the human mGluR2 receptor and adapted from Schaffhauser et al. ((2003) Molecular Pharmacology 4:798-810) for the detection of the positive allosteric modulation (PAM) properties of the compounds of this invention.
CHO-cells were cultured to pre-confluence and stimulated with 5 mM butyrate for 24 h, prior to washing in PBS, and then collected by scraping in homogenisation buffer (50 mM Tris-HCl buffer, pH 7.4, 4° C.). Cell lysates were homogenized briefly using an ultra-turrax homogenizer. The homogenate was centrifuged at 16,000 RPM (Sorvall RC-5C plus rotor SS-34) for 10 minutes and the supernatant discarded. The pellet was resuspended in 5 mM Tris-HCl, pH 7.4 and centrifuged again (18,000 RPM, 20 min, 4° C.). The final pellet was resuspended in 50 mM Tris-HCl, pH 7.4 and stored at −80° C. in appropriate aliquots before use. Protein concentration was determined by the Bradford method (Bio-Rad, USA) with bovine serum albumin as standard.
Measurement of mGluR2 positive allosteric modulatory activity of test compounds was performed as follows. Test compounds and glutamate were diluted in assay buffer containing 10 mM HEPES acid, 10 mM HEPES salt, pH 7.4, 100 mM NaCl, 3 mM MgCl2 and 10 μM GDP. Human mGlu2 receptor-containing membranes were thawed on ice and diluted in assay buffer supplemented with 14 μg/ml saponin. Membranes were pre-incubated with compound alone or together with a predefined (˜EC20) concentration of glutamate (PAM assay) for 30 min at 30° C. After addition of [^35S]GTPγS (f.c. 0.1 nM) microplates were shaken briefly and further incubated to allow [^35S]GTPγS incorporation on activation (30 minutes, 30° C.). Final assay mixtures contained 7 μg of membrane protein in 10 mM HEPES acid, 10 mM HEPES salt, pH 7.4, 100 mM NaCl, 3 mM MgCl2, 10 µM GDP and 10 μg/ml saponin. Total reaction volume was 200 μl. Reactions were terminated by rapid filtration through Unifilter-96 GF/B filter plates (Packard, Meriden, Conn.) using a 96-well Packard filtermate harvester. Filters were washed 6 times with ice-cold 10 mM NaH2PO4/10 mM Na2HPO4, pH 7.4. Filters were then air-dried, and 40 μl of liquid scintillation cocktail (Microscint-O) was added to each well. Membrane-bound radioactivity was counted in a Microplate Scintillation and Luminescence Counter from Packard.
The concentration-response curves of representative compounds of the present invention-obtained in the presence of EC20 of mGluR2 agonist glutamate to determine positive allosteric modulation (PAM)—were generated using the Lexis software interface (developed at J&J).
Turning to `CCOCc1nnc2c(C(F)(F)F)c(N3CCC(Oc4ccccn4)CC3)ccn12` [compound 132], the “GTPγS - hR2 PAM pEC50” value is on record as 6.68. As to `CCCc1nnc2c(C#N)c(N3CCC(c4cccc(F)c4OC)CC3)ccn12` [compound 23], the “GTPγS - hR2 PAM pEC50” value is recorded as 6.98.

Take `N#Cc1c(N2CCN(Cc3ccc(OCC4CC4)c(Cl)c3)CC2)ccn2c(CC(F)(F)F)nnc12` [compound 52]: the “GTPγS - hR2 PAM pEC50” value was 6.98‡. For the compound `Cc1c(N2CCC(c3ccccc3)(C(F)(F)F)CC2)ccn2c(CC3CC3)nnc12` [compound 187], the “GTPγS - hR2 PAM pEC50” value amounted to 6.19. Regarding `N#Cc1c(N2CCC(c3ccccc3)CC2)ccn2c(CC3CCC3)nnc12` [compound 34], the “GTPγS - hR2 PAM pEC50” value is reported as 7.35. For the compound `Clc1c(N2CCC3(CC2)COc2cccnc23)ccn2c(CC3CC3)nnc12` [compound 161], the “GTPγS - hR2 PAM pEC50” value is reported as 5.68‡. Turning to `Clc1c(N2CCN(C3COc4ccccc4C3)CC2)ccn2c(CC3CC3)nnc12` (stereo not drawn) [compound 164], the “GTPγS - hR2 PAM pEC50” value came to 6.46.

For `CC1(c2ccc(F)cc2)CCN(c2ccn3c(CC4CC4)nnc3c2C(F)(F)F)CC1` [compound 194], the “GTPγS - hR2 PAM pEC50” value was determined as 7.69. Consider `CCCc1nnc2c(Cl)c(N3CCN(c4ccc(F)cc4F)CC3)ccn12` [compound 95], for which the “GTPγS - hR2 PAM pEC50” value is 5.93‡.

Consider `Fc1ccc(N2C[C@@H]3CN(c4ccn5c(CC6CC6)nnc5c4Cl)C[C@@H]3C2)c(F)c1` [compound 186], for which the “GTPγS - hR2 PAM pEC50” value is on record as 7.27. With `CCOCc1nnc2c(Cl)c(N3CCC(c4c(F)ccc(F)c4OC)CC3)ccn12` [compound 86], the “GTPγS - hR2 PAM pEC50” value is 7.95. Regarding `CCCCc1nnc2c(C(F)(F)F)c(N3CCC(c4ccc(F)cc4F)CC3)ccn12` [compound 327], the “GTPγS - hR2 PAM pEC50” value is on record as 7.71‡. `N#Cc1c(N2CCC(c3ccccc3)CC2)ccn2c(CC(F)(F)F)nnc12` [compound 20]: the “GTPγS - hR2 PAM pEC50” value is reported as 7.25. Regarding `Clc1c(N2CCC(n3ccc4ccccc43)CC2)ccn2c(CC3CC3)nnc12` [compound 259], the “GTPγS - hR2 PAM pEC50” value was 6.67‡. As to `CCOCc1nnc2c(C(F)(F)F)c(N3CCC(F)(c4ccccc4)CC3)ccn12` [compound 141], the “GTPγS - hR2 PAM pEC50” value is reported as 6.95. Consider `FC(F)(F)c1c(N2CCC(c3ccccc3Cl)CC2)ccn2c(CC3CC3)nnc12` [compound 287], for which the “GTPγS - hR2 PAM pEC50” value is reported as 7.87‡.

With `FC(F)(F)c1c(N2CCC3(C=Cc4ccccc43)CC2)ccn2c(CC3CC3)nnc12` [compound 260], the “GTPγS - hR2 PAM pEC50” value was determined as 7.47. For `COc1cccc(F)c1C1CCN(c2ccn3c(CC4CC4)nnc3c2C#N)CC1` [compound 57], the “GTPγS - hR2 PAM pEC50” value is given as 8.16‡. `N#Cc1c(N2CCC(c3ccccc3)(C(F)(F)F)CC2)ccn2c(CC3CC3)nnc12` [compound 120]: the “GTPγS - hR2 PAM pEC50” value was determined as 6.31. Still for that read-out and setting: for `N#Cc1c(N2CCC(c3ccccc3)CC2)ccn2c(CC3CC3)nnc12` [compound 13, 3-(cyclopropylmethyl)-7-(4-phenyl-1-piperidinyl)-1,2,4-triazolo[4,3-a]pyridine-8-carbonitrile] the value was 7.13. As for `Fc1ccc(N2CCN(c3ccn4c(CC5CC5)nnc4c3C(F)(F)F)CC2)c(F)c1` [compound 196], the “GTPγS - hR2 PAM pEC50” value was 7.06. For `CCOCc1nnc2c(Cl)c(N3CCN(c4ccccc4)C(C)(C)C3)ccn12` [compound 103], the “GTPγS - hR2 PAM pEC50” value was 5.63‡.

In the case of `Cc1cccnc1OC1CCN(c2ccn3c(CC(F)(F)F)nnc3c2Cl)CC1` [compound 59], the “GTPγS - hR2 PAM pEC50” value is given as 7.17. Take `FC(F)(F)c1c(N2CCC(F)(c3ccccc3)CC2)ccn2c(COCC3CC3)nnc12` [compound 80]: the “GTPγS - hR2 PAM pEC50” value is on record as 7.27. Take `Fc1cc(CN2CCN(c3ccn4c(CC5CC5)nnc4c3Cl)CC2)cc(C(F)(F)F)c1` [compound 280]: the “GTPγS - hR2 PAM pEC50” value is given as 5.95‡. Regarding `CCOCc1nnc2c(Cl)c(N3CCC(c4ccccc4OC)CC3)ccn12` [compound 82], the “GTPγS - hR2 PAM pEC50” value turned out to be 7.51.

Turning to `FC(F)(F)c1cccc(CN2CCN(c3ccn4c(CC5CC5)nnc4c3Cl)CC2)c1` [compound 218], the “GTPγS - hR2 PAM pEC50” value is on record as 6.05‡. The same measure, in the same setting: for `CC1(C)CN(c2ccn3c(CC4CC4)nnc3c2C(F)(F)F)CCN1c1ccccc1` [compound 72] the value was 7.06; for `O=C1OC2(CCN(c3ccn4c(CC5CC5)nnc4c3Cl)CC2)c2ccccc21` [compound 149], 6.5‡; for `CC(C)(C)c1nnc2c(C#N)c(N3CCC(c4ccccc4)CC3)ccn12` [compound 35], 5.91.

Regarding `CC1CN(c2ccn3c(CC4CC4)nnc3c2Cl)CCC1c1ccccc1` (single isomer, unassigned) [compound 211], the “GTPγS - hR2 PAM pEC50” value stood at 7.44. For the compound `FC1(c2ccccc2)CCN(c2ccn3c(CC4CC4)nnc3c2Cl)CC1` [compound 42], the “GTPγS - hR2 PAM pEC50” value is on record as 6.83. On the same count and under the same terms, for `Clc1c(N2CCC(c3ccccc3)CC2)ccn2c(CCC3CC3)nnc12` [compound 146] the value was 7.02; for `CCCc1nnc2c(C#N)c(N3CCC(c4ccccc4)CC3)ccn12` [compound 28], 6.53. Regarding `Fc1ccc(N2CCN(c3ccn4c(CC5CC5)nnc4c3C(F)(F)F)CC2)nc1` [compound 360], the “GTPγS - hR2 PAM pEC50” value is given as 6.44‡. As for `CC(C)(C)Cc1nnc2c(C(F)(F)F)c(N3CCC(c4ccccc4)CC3)ccn12` [compound 177], the “GTPγS - hR2 PAM pEC50” value came out at 7.67. For `Cc1cc(C2CCN(c3ccn4c(CC5CC5)nnc4c3C(F)(F)F)CC2)ccn1` [compound 199], the “GTPγS - hR2 PAM pEC50” value was 6.8. `FC(F)(F)Cc1nnc2c(Cl)c(N3CCC(c4ccccc4)CC3)ccn12` [compound 22]: the “GTPγS - hR2 PAM pEC50” value worked out at 7.26. For the compound `CCCc1nnc2c(C(F)(F)F)c(N3CCC4(CC3)OC(F)(F)c3ccccc34)ccn12` [compound 142], the “GTPγS - hR2 PAM pEC50” value is on record as 6.55‡.

Turning to `Fc1cc(F)cc(N2CCN(c3ccn4c(CC5CC5)nnc4c3C(F)(F)F)CC2)c1` [compound 351], the “GTPγS - hR2 PAM pEC50” value was 7.46‡. Take `FC(F)(F)C(c1ccccc1)N1CCN(c2ccn3c(CC4CC4)nnc3c2Cl)CC1` (stereo not drawn) [compound 163]: the “GTPγS - hR2 PAM pEC50” value is recorded as 6.97‡. Still for that read-out and setting: for `Fc1ccc(COC2CCN(c3ccn4c(CC5CC5)nnc4c3C(F)(F)F)CC2)c(F)c1` [compound 279] the value was 7.24‡; for `CC1CN(c2ccn3c(CC4CC4)nnc3c2C(F)(F)F)CCC1c1ccccc1` (single isomer, unassigned) [compound 212], 8.08; for `Fc1ccc(N2CCCC3(C2)CN(c2ccn4c(CC5CC5)nnc4c2C(F)(F)F)C3)c(F)c1` [compound 188], 8‡.

Consider `COc1cccc(F)c1C1CCN(c2ccn3c(CC(F)(F)F)nnc3c2Cl)CC1` [compound 65], for which the “GTPγS - hR2 PAM pEC50” value was 8.41. Regarding `FC(F)(F)c1c(N2C[C@@H]3[C@H](C2)[C@H]3c2ccccc2)ccn2c(CC3CC3)nnc12` [compound 266], the “GTPγS - hR2 PAM pEC50” value is recorded as 7.88‡.

The same assay, now with this note: in presence of glutamate at EC20; average pEC50 if more experiments; ‡ means tested once; read-out: GTPγS - hR2 PAM pEC50 (converted).
Turning to `CC1(C)OC2(CCN(c3ccn4c(CC(F)(F)F)nnc4c3Cl)CC2)c2ccccc21` [compound 139], the EC50 was 4.37 nM. For the compound `CCOCc1nnc2c(Cl)c(N3CCC(c4ccccc4)CC3)ccn12` [compound 5, 8-Chloro-3-(ethoxymethyl)-7-(4-phenyl-1-piperidinyl)-1,2,4-triazolo[4,3-a]pyridine], the EC50 was 132 nM.
